Source: patent US10201564B2, “Methods of using inhaled nitric oxide gas for treatment of acute respiratory distress syndrome in children” (Mallinckrodt Hospital Products IP Limited, priority 2014, dated 2019)
Where “and” joins values, the source holds several entries; their conditions need not be identical. Identical values can stand only once. Entries after “also recorded” stand apart in the source; their conditions may differ.

Assays:
Assay type in all cases: in vivo, human
[1] = system: pediatric subjects with acute hypoxemic respiratory failure (AHRF); test: Pediatric AHRF study, nitric oxide 5 ppm versus placebo: efficacy and subject outcome
Experimental: This was a prospective, multicenter, randomized, double-blind, placebo-controlled, parallel-group study of the safety and efficacy of inhaled nitric oxide in pediatric subjects with acute hypoxemic respiratory failure (AHRF). The subjects were randomized to receive either 5 ppm inhaled nitric oxide or placebo.
Nitric Oxide for inhalation at 5 ppm was administered continuously into the inspiratory limb of the ventilator circuit in mechanically ventilated subjects using a blinded version of the INOvent® delivery system.
Subjects received 100% treatment gas (nitric oxide 5 ppm or placebo [nitrogen gas]) until Day 28 or extubation, whichever occurred first.
Placebo consisting of 100% Grade 5 nitrogen gas was administered continuously into the inspiratory limb of the ventilator circuit in mechanically ventilated subjects using a blinded version of the INOvent® delivery system at a rate equivalent to a 5 ppm dose of nitric oxide.
This was a prospective, multicenter, randomized, double-blind, placebo-controlled, Phase III study to assess the effects of nitric oxide for inhalation in the treatment of acute hypoxic respiratory failure (AHRF) in pediatric subjects. The study population consisted of male and female pediatric subjects, aged 44 weeks postconceptional age to 16 years age, who were admitted to the pediatric intensive care unit (PICU) and who required intubation because of AHRF. The inclusion/exclusion criteria are described in the Patients section below.
(§1) Standardized ventilatory management and weaning procedures were used. Ventilatory management was used based on an “open lung approach” using positive end-expiratory pressure (PEEP) to increase lung volume and limiting tidal volumes to reduce plateau pressures. Subjects received nitric oxide for inhalation at 5 ppm or placebo (100% Grade 5 nitrogen gas) into the inspiratory limb of the ventilator circuit using a blinded version of the INOvent® delivery system. The subjects were treated until Day 28 or extubation, whichever occurred first. Subjects were assessed daily using a spontaneous breathing trial, according to the institution's standard of care. Arterial blood gases (ABG), ventilator settings, methemoglobin, oxygenation index, systolic blood pressure, diastolic blood pressure, Pediatric Risk of Mortality (PRISM) III score, and subject positioning (prone or supine) were performed/recorded at specified times during the study. Selected centers also performed plasma cytokine assays, bronchoalveolar lavage fluid (BALF) assays, and a 6-month follow-up assessment.
Inclusion criteria for patients were as follows: • 1. 44 weeks post-conceptional age to 16 years of age • 2. Oxygenation Index (OI)≥12 cm H2O/mmHg (as determined by two separate measurements taken 30 minutes to 4 hours apart) • 3. Recent chest x-ray (within 24 hours) showing at least unilateral infiltrates • 4. Mechanically ventilated (oral or nasopharyngeal)<7 days
Exclusion criteria for patients were as follows: • 1. Immunocompromised • 2. Received a bone marrow transplant • 3. Active oncological condition • 4. Persistent right to left intracardiac shunt • 5. Cardiovascular surgery within the last 14 days • 6. Status asthmaticus • 7. Decision by primary care physician not to provide full support (futility) • 8. Received treatment with nitric oxide for inhalation or other investigational medications with 24 hours prior to study initiation. • 9. Chronically ventilated • 10. Pregnant Study Design and Schedule of Assessments:
Extubation was considered when: • i. Pressure support of <10 cm H2O • ii. FiO2<0.60 • iii. PEEP<6 cm H2O • iv. Nitric oxide has been discontinued for 30 minutes
Extubation occurred within 12 hours of meeting the above criteria. If a patient met the above criteria but was not extubated within 12 hours, the reason (i.e. airway protection, surgery, secretions clearance, etc.) was documented.

[2] = system: patients with moderately severe Acute Lung Injury (ALI); test: Adult ALI/ARDS study: safety results (adverse events); settings: initial 28-day study period
Experimental: A large-scale, randomized, blinded, placebo-controlled study was carried out in the Intensive Care Units (ICUs) of 46 US hospitals to evaluate the efficacy of low-dose (5 ppm) iNO in 385 patients with moderately severe Acute Lung Injury (ALI). The primary endpoint of this study was number of days alive and off assisted breathing.
Safety results for the initial 28-day study period have been reported and are summarized briefly here. A total of 630 adverse events (AEs) were reported for patients treated with iNO versus 666 events for those who received placebo. Respiratory system AEs occurred in 51% versus 61% of patients receiving iNO and placebo, respectively, primarily due to higher frequencies of pneumonia, pneumothorax, and apnea in the placebo group. Frequency of other AEs was similar in both groups.
Patients were randomly assigned to receive either inhaled placebo gas (nitrogen) or 5 ppm of iNO (INO Therapeutics Inc., Port Allen, La.). All patients, healthcare professionals, and investigators were blinded to the assigned treatment. Inhaled NO was administered via INOvent® delivery system (Datex-Ohmeda, Madison, Wis.) that blended treatment gas (nitrogen or NO at 100-ppm balance nitrogen) 1:20 with ventilator gases to achieve a target ppm value in the inspiratory limb of the ventilator.

[3] = system: pediatric subjects with acute hypoxemic respiratory failure (AHRF); test: Pediatric AHRF study: percent methemoglobin levels; settings: 5 ppm
Experimental: as §1
The following assessments were made at baseline: arterial blood gases, ventilator settings, methemoglobin, prone position, PRISM III score, oxygenation index, systolic and diastolic blood pressure, bronchoalveolar lavage fluid assay and plasma cytokine.
The following assessments were made at 4 hours±1 hour after the start of therapy: arterial blood gases, ventilator settings and methemoglobin.
The following assessments were made at 24 hours±2 hours after the start of therapy: arterial blood gases, ventilator settings, methemoglobin, systolic and diastolic blood pressure and plasma cytokine.
Percent methemoglobin levels were obtained at baseline and at Hours 4 and 24. […] These levels were well below levels that would have necessitated discontinuation of treatment.

[4] = 5 ppm, discharge evaluation, N 26
[5] = 5 ppm, in words, approached statistical significance

## [N]=O [Nitric Oxide, nitric oxide]
[1]; 5 ppm
  completed 28 days of the study or successfully extubated: 21 (80.8%) n (%)
[1]; 5 ppm, N 10
  Days on supplemental O2, Median: 18.1 days
  Number of days on supplemental O2, Mean (SD): 19.6 (13.4) ^ days and 19.6 (13.4) days
[1]; 5 ppm, N 20
  Days originally intubated, Median: 13.7 days
  Number of days originally intubated, Mean (SD): 13.6 (6.8) ^ days and 13.6 (6.8) days
[1]; 5 ppm, N 22
  Days in PICU, Median: 17.3 days
  Number of days in PICU, Mean (SD): 17.8 (8.3) ^ days and 17.8 (8.3) days
[1]; [4]
  Clinical sepsis: 4 (15.4%) n (%)
  Died (cause of death related to pulmonary condition): 0 (0) ^ n (%)
  ECMO at any time during treatment: 0 (0) ^ n (%)
  HFOV at any time during treatment: 11 (42.3%) n (%)
  Intubated on Day 28: 2 (7.7%) n (%)
  Pneumothorax: 3 (11.5%) n (%)
  Receiving supplemental O2 on Day 28: 11 (42.3%) n (%)
  Survival: 23 (88.5%) n (%)
  VAP (ventilator-associated pneumonia): 5 (19.2%) n (%)
[1]; 5 ppm, in words
  days in the PICU versus placebo: lower
  duration (mean number of days) of supplemental oxygen versus placebo: higher
  frequency of extracorporeal membrane oxygenation versus placebo: lower
  frequency of high frequency oscillatory ventilation versus placebo: lower
  frequency of pneumothorax versus placebo: lower
  frequency of ventilator-associated pneumonia at discharge versus placebo: higher
  mean duration (number of days) of intubation versus placebo: lower
[1]; [5]
  duration of mechanical ventilation (MV): shortened
  rate of survival: improved
[1]; 5 ppm, in words, listed as iNO
  rate of ECMO free survival versus placebo: significantly greater; also recorded: significantly higher
[1]; 5 ppm, n = 26, subject outcome
  Day 28 (completed 28 days): 1 (3.8%) n (%)
  Death: 2 (7.7%) n (%)
  Successful extubation: 20 (76.9%) n (%)
  Total discontinued: 5 (19.2%) n (%)
[1]; 5 ppm, placebo 15 of 29, p<0.01
  rate of ECMO free survival: 22 of 24
[1]; 5 ppm, placebo 21 of 29, p=0.07
  Survival at 28 days: 22 of 24
[1]; 5 ppm, placebo 72.4%
  survival rate: 88.5%
[1]; 4 hours, 5 ppm, placebo 26.1+/−19.5, p=0.09
  oxygenation index (OI): 14.3+/−5.9
[1]; 12 hours, 5 ppm, placebo 24.5+/−22.0, p=0.04
  oxygenation index (OI): 14.7+/−6.0
[1]; 24 hours, 5 ppm, placebo 16.7+/−9.9, p=0.53
  oxygenation index (OI): 15.2+/−10.8
[1]; in words
  number of days that a child is ventilator-free at 28 days after the start of iNO therapy: increased
[2]
  Frequency of other (non-respiratory) AEs versus placebo: similar
[2]; placebo 61%
  Respiratory system AEs, patients: 51%
[2]; placebo 666
  adverse events (AEs) reported, total: 630
[3]; 4 Hours
  Methemoglobin level, Mean (SD): 0.64 (0.33) %
  Methemoglobin level, Median: 0.8%
[3]; 24 Hours
  Methemoglobin level, Mean (SD): 0.52 (0.37) %
  Methemoglobin level, Median: 0.5%
[3]; Baseline
  Methemoglobin level, Mean (SD): 0.56 (0.35) %
  Methemoglobin level, Median: 0.5%
[3]; at most time points, in words
  Percent methemoglobin levels versus placebo group: equal to or less than
[3]; baseline, Hours 4 and 24, in words
  percent methemoglobin levels: within normal limits
